Data taken from patent US12233057B2, “Small molecules for inhibiting chemokine activity and/or cancer cells growth” (AlonBio Ltd., priority 2015, dated 2025).

Experiments:
other bacteria = settings: Nomura et al., Biol Pharm Bull 2012; cited from earlier work
Legionella = settings: cited from earlier work
SDF-1 = assay: Migration assay: Jurkat cells towards SDF-1 (Transwell); type: cell-based, human; settings: for Inhibition of SDF-1/CXCR4 mediated migration of Jurkat cells: 1, 5, 10 and 50 μM (FIGS. 19A-B)
Experimental: (§1) 600 μl of RPMI medium was added to the lower chambers of Transwell® transmigration plates, supplemented with 2 μg/ml of MIP3a, 100 ng/ml of SDF-1 or 10 ng/ml of MCP-1. The tested small molecule was added to the lower chambers at the indicated concentration, except in control samples. The MIP3a, SDF-1 or MCP-1 was incubated with the small molecule for 30 minutes at room temperature before the initiation of the migration assay. Following 30 minutes of incubation 2×10^5 immune cells were added to the upper chambers of the transmigration plates in a total volume of 100 μl. Cells which migrated within 3 hours to the bottom chamber of the Transwell® plates were counted using a FACScalibur™ flow cytometer.
To evaluate migration towards SDF-1, Jurkat cells were re-suspended in RPMI medium containing 1% fetal calf serum (FCS).

MCP-1 = MCP-1 (Homo sapiens, UniProt P13500); assay: Migration assay: THP-1 cells towards MCP-1 (Transwell); type: cell-based; settings: 0.1, 0.5, 1 and 10 μM (FIG. 20B)
Experimental: as §1
To evaluate migration towards MCP-1, JTHP-1 cells were re-suspended in RPMI medium containing 1% fetal calf serum (FCS).

OVCAR3 = assay: Inhibition of cell growth in additional cancer cell lines; type: cell-based; settings: Homo sapiens, OVCAR-3; 1.0 Micromolar; OVCAR3, Ovarian
U937 cells [1] = assay: Cell cycle by 7-AAD assay in U937 cells; type: cell-based; settings: U937, 24 hours; for Effect on cell cycle: any of the tested concentrations (0.1, 1 and 10 μM)
Experimental: (§2) U937 cells were incubated for 24 hours with RPMI medium 1% FCs in the presence of 0.1, 1, and 10 μM of Compounds A1, A3, B1, D1 and BKT300-3-c5, using DMSO as a solvent.
Cell cycle was measured using the 7-AAD assay.

U937 cells [2] = assay: Apoptosis and cell viability by annexin-V/PI assay in U937 cells; type: cell-based; settings: U937, 24 hours; for Concentration at which an effect on apoptosis was observed / Concentration at which an effect on cell viability was observed: tested 0.1, 1 and 10 μM; for Effect on apoptosis: any of the tested concentrations (0.1, 1 and 10 μM)
Experimental: as §2
Apoptosis and cell viability were measured using the annexin-V/PI assay.

caspase-3 = assay: Cleaved caspase-3 by Western blot and Elisa in AML cell lines NB4, U937 and MV4-11; type: cell-based, human; settings: 1 μM, 24 hours; NB4, U937 and MV4-11 (FIGS. 31A-C)
Experimental: In still further studies, the role of caspase-3 (CASP3) in the BKT300-3-c5-induced apoptosis of AML cell lines NB4, U937 and MV4-11 was tested. Cells were incubated with BKT300-3-c5 (1 μM) for 24 hours, and were then tested for the presence of cleaved using mAb against human cleaved caspase 3 by Western blot and Elisa assay to caspase-3.

SU-DHL-6 = assay: Inhibition of cell growth in additional cancer cell lines; type: cell-based; settings: Homo sapiens; 1.0 Micromolar; SU-DHL-6, DLBCL
SKNBE = assay: as above; type: cell-based; settings: 1.0 Micromolar, Neuroblastoma
various cancer cells = assay: 7-ADD staining of various cancer cells (cell cycle / apoptosis); type: cell-based; settings: 1 μM, 24-hour incubation, all tested cells (FIG. 29)
Experimental: While further studying the activity of BKT300-3-c5, various cancer cells were incubated with 1 μM BKT300-3-c5, and without it (control), and then stained for 7-ADD.

RPMI8826 = assay: Inhibition of cell growth in additional cancer cell lines; type: cell-based; settings: 1.0 Micromolar; RPMI8826, Myeloma
K562 = assay: as above; type: cell-based; settings: Homo sapiens; 1.0 Micromolar; K562, CML
MV4-11 cells = assay: Annexin-V and Propidium Iodide staining of MV4-11 cells; type: cell-based, human; settings: 1 μM, 24 hours (FIG. 30)
Experimental: In further studies, apoptosis induction by BKT300-3-c5 was established by incubating MV4-11 cells with and without BKT300-3-c5 (1 μM) for 24 hours, followed by staining the cells for Annexin-V and Propidium Iodide (PI).

H460 = assay: Inhibition of cell growth in additional cancer cell lines; type: cell-based; settings: Homo sapiens, NCI-H460; 1.0 Micromolar; H460, Lung
[3] = test system: MV4-11 human acute myeloid leukemia cells; assay: Cancer cell viability assay, propidium iodide staining (FACS); type: cell-based
Experimental: (§3) The cancer cells were incubated in cell medium with 1% fetal calf serum (FCS) at a concentration of 2×10^5 cells/well at a final volume of 250 μl in 96-well plate. The tested small molecule was added to the cells at the indicated concentrations. The cells were incubated for 24 hours and the number of dead and viable cells was then evaluated by fluorescence-activated cell sorting (FACS), using propidium iodide (PI) staining. The IC50 of the small molecule-induced cell death was determined using GraphPad Prism software.
In order to assess the effect of BKT300 on cancer cells viability, the in vitro effect on MV4-11 human acute myeloid leukemia cells was evaluated. The MV4-11 cancer cells were incubated in RPMI cell medium with 1% fetal calf serum (FCS) at a concentration of 2×10^5 cells/well at a final volume of 250 μl in 96-well plate. BKT300 was added to the cells at the indicated concentrations. The cells were incubated for 24 hours and the number of dead and viable cells was then evaluated by fluorescence-activated cell sorting (FACS), using propidium iodide (PI) staining. The IC50 of […] cell death was determined using GraphPad Prism software.

Toledo = assay: Inhibition of cell growth in additional cancer cell lines; type: cell-based; settings: Homo sapiens, 1.0 Micromolar, DLBCL
[4] = test system: MV4-11, U937, REH, THP-1, NB4, PC-3 and B16-F10 cells; assay: Cancer cell viability assay (PI staining), comparison with IPI-145 in all tested cell lines; type: cell-based; settings: 24 hours
Experimental: as §3
The effect of BKT300-3-c5 on the viability of various cancer cells has been tested, as described under the “method” section hereinabove, and compared to the effect of IPI-145.
FIGS. 22A-B, 23A-B, 24A-B and 25A-B present the effect of BKT300-3-c5 and IPI-145 on various leukemic cells: U937, REH, THP-1 and NB4, respectively.
FIG. 26 presents the effect of BKT300-3-c5 and IPI-145 on prostate cancer PC-3 cells.
FIG. 27 presents the effect of BKT300-3-c5 and IPI-145 on melanoma B16-F10 cells.

Farage = assay: Inhibition of cell growth in additional cancer cell lines; type: cell-based; settings: 1.0 Micromolar, DLBCL
HL60 = assay: as above; type: cell-based; settings: Homo sapiens, HL-60; 1.0 Micromolar; HL60, AML
SU-DHL-4 = assay: as above; type: cell-based; settings: Homo sapiens; 1.0 Micromolar; SU-DHL-4, DLBCL
metastasis = settings: animal studies; Smith et al. 2004; cited from earlier work
glioblastoma = settings: animal studies; Kioi et al. 2010; cited from earlier work
[5] = animal studies; Wilson et al. 2011; cited from earlier work

MCP-1, sequence (P13500 24-99): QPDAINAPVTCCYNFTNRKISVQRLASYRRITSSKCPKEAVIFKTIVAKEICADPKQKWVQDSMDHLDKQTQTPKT

CCCCCC(=O)Cc1cc(O)cc(O)c1Oc1cc(O)cc2cc(CCCCC)oc(=O)c12 [8-(2,4-dihydroxy-6-(2-oxoheptyl)-phenoxy)-6-hydroxy-3-pentyl-1H-isochromen-1-one]
Antibacterial activity against other bacteria (other bacteria): not against other bacteria | Antibacterial activity against Legionella (Legionella): potent antibacterial activity

CCCCCC1C(=O)Nc2c(Oc3ccc(OC)cc3OC)cc(OC)cc2C1=O (stereo not shown) [BKT300-3-c5, 8-(2,4-dimethoxyphenoxy)-6-methoxy-3-pentylquinoline-2,4(1H,3H)-dione]
Inhibiting SDF-1/CXCR4 mediated migration of Jurkat cells, compared to IPI-145 (SDF-1; 1, 5, 10 and 20 μM (FIG. 20A)): more effective that IPI-145 | Inhibition of SDF-1/CXCR4 mediated migration of Jurkat cells (SDF-1): inhibition | Inhibiting MCP-1 induced migration of THP-1, compared to IPI-145 (MCP-1): more effective that IPI-145 | inhibition at 1 µM (OVCAR3): 93.7% | Concentration at which cell cycle arrest is demonstrated (U937 cells [1]; tested 0.1, 1 and 10 μM): 0.1 µM | Concentration at which an effect on apoptosis was observed (U937 cells [2]): 0.1 µM | Concentration at which an effect on cell viability was observed (U937 cells [2]): 0.1 µM | Cleaved caspase-3 in induced apoptosis (caspase-3): via caspase-3 activation | inhibition at 1 µM (SU-DHL-6): 50% | inhibition at 1 µM (SKNBE): 73% | Apoptotic cell death, 7-ADD staining (various cancer cells): induce apoptotic cell death | Growth arrest (cell cycle), 7-ADD staining (various cancer cells): arrest the growth at the G2M phase | inhibition at 1 µM (RPMI8826): 90.6% | inhibition at 1 µM (K562): 71% | Apoptosis induction, percentage of viable MV4-11 cells (MV4-11 cells): reduction in the percentage of viable cells via apoptosis | inhibition at 1 µM (H460): 78% | IC50 ([3]; Homo sapiens, MV4-11, 24 hour-treatment (FIG. 21B), read-out: IC50, viability of MV4-11 AML cells): 850 nM | inhibition at 1 µM (Toledo): 4% | Reducing the survival of cancer cells, compared to IPI-145 [4]: superior effect compared to IPI-145 | inhibition at 1 µM (Farage): 40% | inhibition at 1 µM (HL60): 94.9% | inhibition at 1 µM (SU-DHL-4): 34%

CCCCCc1cc(OC)ccc1Oc1cc(OC)cc2c1NC(=O)C(CCCCC)C2=O (stereo not shown) [BKT300-11-a5, 6-methoxy-8-(4-methoxy-2-pentylphenoxy)-3-pentylquinoline-2,4(1H,3H)-dione]
Inhibition of SDF-1/CXCR4 mediated migration of Jurkat cells (SDF-1): inhibition | Effect on the viability of MV4-11 cells ([3]; 1.328, 6.64, 13.28 and 26.56 μM (FIGS. 28A-B)): affect viability

CCCCCc1cc2cc(O)cc(Oc3c(O)cc(O)c(C(=O)O)c3CCCCC)c2c(=O)o1 [BKT400]
Inhibition of migration of Jurkat cells towards SDF-1 (SDF-1; 1 and 10 μg/ml (FIG. 2C)): inhibit

COc1ccc(Oc2cc(OC)cc3c2NC(=O)CC3=O)c(OC)c1 [Compound A1, 8-(2,4-dimethoxyphenoxy)-6-methoxyquinoline-2,4(1H,3H)-dione]
Effect on cell cycle (U937 cells [1]): no effect | Effect on apoptosis (U937 cells [2]): no effect

CCC1C(=O)Nc2c(Oc3ccc(OC)cc3OC)cc(OC)cc2C1=O (stereo not shown) [Compound A3, 8-(2,4-dimethoxyphenoxy)-3-ethyl-6-methoxyquinoline-2,4(1H,3H)-dione]
Effect on cell cycle (U937 cells [1]): no effect | Effect on apoptosis (U937 cells [2]): no effect

CCCCCC1C(=O)Nc2c(Oc3ccc(OC)cc3)cc(OC)cc2C1=O (stereo not shown) [Compound B1, 6-methoxy-8-(4-methoxyphenoxy)-3-pentylquinoline-2,4(1H,3H)-dione]
Concentration at which cell cycle arrest is demonstrated (U937 cells [1]; tested 0.1, 1 and 10 μM): 10 µM | Concentration at which some effect on cell cycle is already observed (U937 cells [1]; tested 0.1, 1 and 10 μM): 1 µM | Concentration at which an effect on apoptosis was observed (U937 cells [2]): 1 µM | Concentration at which an effect on cell viability was observed (U937 cells [2]): 1 µM

CCCCCC1C(=O)Nc2c(Oc3ccccc3OC)cc(OC)cc2C1=O (stereo not shown) [Compound D1, 6-methoxy-8-(2-methoxyphenoxy)-3-pentylquinoline-2,4(1H,3H)-dione]
Concentration at which cell cycle arrest is demonstrated (U937 cells [1]; tested 0.1, 1 and 10 μM): 1 µM | Concentration at which an effect on apoptosis was observed (U937 cells [2]): 0.1 µM | Concentration at which an effect on cell viability was observed (U937 cells [2]): 0.1 µM

C[C@H](Nc1ncnc2nc[nH]c12)c1cc2cccc(Cl)c2c(=O)n1-c1ccccc1 [IPI-145, reference compound]
Apoptotic cell death, 7-ADD staining (various cancer cells): does not affect growth arrest nor apoptosis | Growth arrest (cell cycle), 7-ADD staining (various cancer cells): does not affect growth arrest nor apoptosis

c1cc(CN2CCCNCCNCCCNCC2)ccc1CN1CCCNCCNCCCNCC1 [plerixafor]
Effect on metastasis (metastasis): reduce metastasis | Effect on recurrence of glioblastoma (glioblastoma): reduce recurrence of glioblastoma associated with vasculogenesis | Effect on opioid-induced hyperalgesia [5]: counteract opioid-induced hyperalgesia
